The supplement of paper PMC10307832

What was measured:
Assay in all cases: relative viability (nuclei count vs DMSO), 5 days (fraction); higher = more cells survive
FG-4592 + Phenformin = compound: Cc1nc(C(=O)NCC(=O)O)c(O)c2ccc(Oc3ccccc3)cc12 [FG-4592] + N=C(N)NC(=N)NCCc1ccccc1 [Phenformin] (partner 250 µM)
Summary of the method: (§1)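 After 5 days of treatment, lung cancer cells in 1536-well plates were fixed and stained in a single step (final 0.05% Triton X-100, 1% formaldehyde, 1 ug/ml Hoechst) and their nuclei counted on 4× images. Treatment had been applied by pin tool the day after seeding as one drug alone or as a fixed anchor-drug dose with five library-drug doses (not always all listed) in √10 steps. Relative viability is the nuclei count of treated wells divided by that of vehicle wells, and values are medians of duplicate plates.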

FG-4592 + Tozasertib = compound: Cc1nc(C(=O)NCC(=O)O)c(O)c2ccc(Oc3ccccc3)cc12 [FG-4592] + Cc1cc(Nc2cc(N3CCN(C)CC3)nc(Sc3ccc(NC(=O)C4CC4)cc3)n2)n[nH]1 [Tozasertib] (partner 0.1 µM)
Summary of the method: as §1

FG-4592 + Alpelisib = compound: Cc1nc(C(=O)NCC(=O)O)c(O)c2ccc(Oc3ccccc3)cc12 [FG-4592] + Cc1nc(NC(=O)N2CCC[C@H]2C(N)=O)sc1-c1ccnc(C(C)(C)C(F)(F)F)c1 [Alpelisib] (partner 2 µM)
Summary of the method: as §1

FG-4592 + Palbociclib = compound: Cc1nc(C(=O)NCC(=O)O)c(O)c2ccc(Oc3ccccc3)cc12 [FG-4592] + CC(=O)c1c(C)c2cnc(Nc3ccc(N4CCNCC4)cn3)nc2n(C2CCCC2)c1=O [Palbociclib] (partner 0.5 µM)
Summary of the method: as §1

| Cell Line | relative viability (FG-4592 + Phenformin; first compound 0.08 µM) | relative viability (FG-4592 + Phenformin; first compound 0.253 µM) | relative viability (FG-4592 + Phenformin; first compound 0.8 µM) | relative viability (FG-4592 + Phenformin; first compound 2.53 µM) | relative viability (FG-4592 + Phenformin; first compound 8 µM) | relative viability (FG-4592 + Tozasertib; first compound 0.08 µM) | relative viability (FG-4592 + Tozasertib; first compound 0.253 µM) | relative viability (FG-4592 + Tozasertib; first compound 0.8 µM) | relative viability (FG-4592 + Tozasertib; first compound 2.53 µM) | relative viability (FG-4592 + Tozasertib; first compound 8 µM) | relative viability (FG-4592 + Alpelisib; first compound 0.08 µM) | relative viability (FG-4592 + Alpelisib; first compound 0.253 µM) | relative viability (FG-4592 + Alpelisib; first compound 0.8 µM) | relative viability (FG-4592 + Alpelisib; first compound 2.53 µM) | relative viability (FG-4592 + Alpelisib; first compound 8 µM) | relative viability (FG-4592 + Palbociclib; first compound 0.08 µM) | relative viability (FG-4592 + Palbociclib; first compound 0.253 µM) | relative viability (FG-4592 + Palbociclib; first compound 0.8 µM) | relative viability (FG-4592 + Palbociclib; first compound 2.53 µM) | relative viability (FG-4592 + Palbociclib; first compound 8 µM) |
| --- | --- | --- | --- | --- | --- | --- | --- | --- | --- | --- | --- | --- | --- | --- | --- | --- | --- | --- | --- | --- |
| 201T | 0.399 | 0.408 | 0.423 | 0.437 | 0.493 | 0.856 | 0.965 | 1.06 | 0.998 | 0.946 | 0.96 | 0.96 | 0.879 | 1.02 | 1.03 | 0.349 | 0.362 | 0.341 | 0.36 | 0.341 |
| A549 | 0.166 | 0.154 | 0.159 | 0.191 | 0.216 | – | – | – | – | – | 0.831 | 0.626 | 0.823 | 0.759 | 0.686 | – | – | – | – | – |
| A-427 | 0.27 | 0.313 | 0.341 | 0.335 | 0.414 | 0.21 | 0.223 | 0.201 | 0.206 | 0.224 | 1.04 | 1.07 | 1.04 | 1.13 | 1.05 | 0.502 | 0.489 | 0.562 | 0.553 | 0.591 |
| ABC-1 | 0.232 | 0.201 | 0.211 | 0.258 | 0.254 | 0.177 | 0.178 | 0.148 | 0.187 | 0.149 | 1.17 | – | 1.17 | 0.958 | 0.866 | 0.718 | 0.503 | – | 0.537 | 0.437 |
| BEN | 0.234 | 0.231 | 0.268 | 0.288 | 0.306 | 0.564 | 0.459 | 0.475 | 0.676 | 0.452 | 0.831 | 0.807 | 0.753 | 0.965 | 0.701 | 0.433 | 0.44 | 0.463 | 0.454 | 0.475 |
| CAL-12T | 0.593 | 0.51 | 0.56 | 0.546 | 0.542 | 0.335 | 0.267 | 0.312 | 0.293 | 0.29 | 1.13 | 1.23 | 1.55 | 1.13 | 0.971 | 0.554 | 0.339 | 0.386 | 0.336 | 0.442 |
| COR-L23 | 0.467 | 0.375 | 0.477 | 0.411 | 0.437 | 0.186 | 0.212 | 0.217 | 0.153 | 0.171 | 0.751 | 0.653 | 0.918 | 0.768 | 0.783 | 0.274 | 0.28 | 0.258 | 0.274 | 0.234 |
| COR-L 105 | 0.46 | 0.432 | 0.456 | 0.437 | 0.45 | 0.348 | 0.375 | 0.359 | 0.297 | 0.35 | 1.07 | 0.91 | 0.981 | 0.732 | 1.02 | 0.419 | 0.433 | 0.324 | 0.34 | 0.418 |
| Calu-6 | – | – | – | – | – | – | – | – | – | – | 0.952 | 0.846 | 1.12 | 0.985 | 0.969 | – | – | – | – | – |
| ChaGo-K-1 | 0.525 | 0.478 | 0.44 | 0.466 | 0.492 | 0.241 | 0.219 | 0.224 | 0.237 | 0.208 | – | – | – | – | – | 0.9 | 0.878 | 1.01 | 0.914 | 0.958 |
| EBC-1 | – | – | – | – | – | – | – | – | – | – | 0.895 | 0.816 | 0.736 | 0.693 | 0.814 | – | – | – | – | – |
| IA-LM | – | – | – | – | – | – | – | – | – | – | 0.827 | 0.707 | 0.878 | 0.54 | 0.433 | – | – | – | – | – |
| NCI-H522 | 0.711 | 0.583 | 0.562 | 0.669 | 0.641 | 0.493 | 0.625 | 0.545 | 0.539 | 0.437 | – | – | – | – | – | 0.97 | 0.884 | – | 1.1 | 0.811 |
| NCI-H596 | 0.637 | 0.712 | 0.512 | 0.72 | 0.473 | 0.975 | 0.916 | 0.867 | 0.893 | 0.682 | 0.418 | 0.482 | – | 0.499 | 0.527 | – | – | – | – | – |
| NCI-H1299 | – | – | – | – | – | – | – | – | – | – | 1.06 | 0.999 | 1.05 | 1.04 | 1.04 | – | – | – | – | – |
| NCI-H1563 | 0.663 | 0.735 | 0.684 | 0.665 | 0.603 | – | – | – | – | – | 1.03 | 0.949 | 0.939 | 0.936 | 0.845 | – | – | – | – | – |
| NCI-H1648 | – | – | – | – | – | 0.536 | 0.527 | 0.515 | 0.47 | 0.542 | – | – | – | – | – | 0.248 | 0.29 | – | 0.282 | 0.262 |
| NCI-H1650 | 0.464 | 0.448 | 0.338 | 0.586 | 0.51 | 0.409 | 0.277 | 0.427 | 0.456 | 0.406 | – | – | – | – | – | 0.259 | 0.292 | 0.304 | 0.346 | 0.332 |
| NCI-H1703 | – | – | – | – | – | – | – | – | – | – | 0.255 | 0.354 | 0.295 | 0.326 | 0.353 | – | – | – | – | – |
| NCI-H1792 | 0.355 | 0.247 | – | 0.352 | 0.24 | – | – | – | – | – | 0.78 | 0.635 | 0.544 | 0.619 | 0.721 | 0.493 | 0.614 | 0.689 | 0.661 | 0.684 |
| NCI-H2342 | 0.521 | 0.531 | 0.519 | 0.613 | 0.469 | 0.493 | 0.43 | 0.442 | 0.464 | 0.421 | – | – | – | – | – | 0.519 | 0.503 | 0.47 | 0.538 | 0.489 |
| SW 900 | 0.584 | 0.687 | 0.439 | 0.47 | 0.586 | 0.575 | 0.675 | 0.527 | 0.417 | 0.531 | – | – | – | – | – | – | 0.525 | – | 0.568 | 0.5 |
